{"source": "patent US20240066045A1", "about": "“SEMICARBAZONE-BASED SAPONIN CONJUGATE” (priority 2020, published 2024)", "key": {"apoB protein in serum": {"test_system": "apoB protein in serum", "experiment": "In vivo efficacy: serum apoB protein (ELISA)", "design": "species or system C57BL/6J mice", "settings": "study B; 2 mg/kg; 72 hrs post-dose", "description": "In Vivo Tolerability and Efficacy of Trivalent GalNAc-Conjugates in a C57BL/6J Model • Dose administration and in-life phase. Per group, 8 C57BL/6J male mice for treatment groups (in study A, 14 mice in vehicle control group), approximately 6-7 weeks at arrival and 8-9 weeks at dosing, were dosed. […] […] Animals were weighed weekly and clinical observations were performed 2-3 times daily within the first 48 hrs, and at least once daily thereafter until study end. • Sampling of serum, liver, and kidney tissue. […] At the relevant inter-study post-dose timepoints, 3 animals per timepoint per treatment group (6 animals in the vehicle control group in study A) were sacrificed to collect terminal bleeds and collect relevant organs, such as liver and kidney tissues for further analyses. at end of study, the remaining 2 animals (4 in the control group in study A) per group were sacrificed. One half of the liver and one kidney was frozen and used for tissue RNA analysis.\nApoB protein levels in mouse serum was determined using an ApoB ELISA (ab230932, Abcam, Cambridge, UK), according to the manufacturer's instruction."}, "apoB RNA in liver tissue": {"test_system": "apoB RNA in liver tissue", "experiment": "In vivo efficacy: apoB RNA in liver tissue (qRT-PCR)", "design": "species or system C57BL/6J mice", "settings": "for reduction of liver apoB RNA compared to vehicle: study A", "description": "(§1) In Vivo Tolerability and Efficacy of Trivalent GalNAc-Conjugates in a C57BL/6J Model • Dose administration and in-life phase. Per group, 8 C57BL/6J male mice for treatment groups (in study A, 14 mice in vehicle control group), approximately 6-7 weeks at arrival and 8-9 weeks at dosing, were dosed. The compounds, formulated in PBS or PBS alone (vehicle) according to Table A5 and Table A6, were dosed at 5 ml/kg in the tail vain (intravenously, iv), with dose volumes corresponding to the individual bodyweights. Where applicable, trivalent (GalNAc)3-SO1861 (EMCH) was co-administered at 5 ml/kg in the tail vain (iv) right after the trivalent GalNAc-ApoB conjugate. Animals were weighed weekly and clinical observations were performed 2-3 times daily within the first 48 hrs, and at least once daily thereafter until study end. • Sampling of serum, liver, and kidney tissue. […] At the relevant inter-study post-dose timepoints, 3 animals per timepoint per treatment group (6 animals in the vehicle control group in study A) were sacrificed to collect terminal bleeds and collect relevant organs, such as liver and kidney tissues for further analyses. at end of study, the remaining 2 animals (4 in the control group in study A) per group were sacrificed. One half of the liver and one kidney was frozen and used for tissue RNA analysis.\nThe mRNA was isolated from frozen liver tissue using TRizol® Reagent (Thermo Scientific) according to the manufacturer's instruction. Conversion into cDNA was performed using iScript™ cDNA Synthesis Kit (BioRad). ApoB expression levels and levels of specific liver housekeeping genes were determined using quantitative real-time PCR assays (qRT-PCR) using iTaq™ Universal SYBR® Green Supermix (BioRad) and the Light Cycler 480 (Roche Diagnostics, Rotkreuz, Switzerland) with specific DNA primers, listed in Table A4 (study A) and Table A7 (study B), respectively. Analysis was done by the ΔCt method to determine ApoB expression relative to 2 liver-specific housekeeping control mRNAs. Each analysis reaction was performed in triplicate."}, "[1]": {"experiment": "In vivo tolerability: clinical observations, body weight, serum ALT", "design": "species or system C57BL/6J mice", "settings": "study A; doses and dose regimens of Table A5, iv", "description": "In Vivo Tolerability and Efficacy of Trivalent GalNAc-Conjugates in a C57BL/6J Model • Dose administration and in-life phase. Per group, 8 C57BL/6J male mice for treatment groups (in study A, 14 mice in vehicle control group), approximately 6-7 weeks at arrival and 8-9 weeks at dosing, were dosed. The compounds, formulated in PBS or PBS alone (vehicle) according to Table A5 and Table A6, were dosed at 5 ml/kg in the tail vain (intravenously, iv), with dose volumes corresponding to the individual bodyweights. Where applicable, trivalent (GalNAc)3-SO1861 (EMCH) was co-administered at 5 ml/kg in the tail vain (iv) right after the trivalent GalNAc-ApoB conjugate. Animals were weighed weekly and clinical observations were performed 2-3 times daily within the first 48 hrs, and at least once daily thereafter until study end. • Sampling of serum, liver, and kidney tissue. […]\nSerum alanine transaminase (ALT) levels was measured using an AU480 assay kit from Beckman Coulter (photometric measurements), according to the manufacturer's instructions."}, "[2]": {"test_system": "serum LDL-cholesterol (LDL-C)", "experiment": "In vivo efficacy: serum LDL-cholesterol", "design": "species or system C57BL/6J mice", "description": "as §1\nLDL-cholesterol was measured in mouse serum, using an LDL-cholesterol specific two-step AU480 assay kit, respectively, from Beckman Coulter, with a photometric measurement according to the manufacturer's instructions."}, "[3]": {"test_system": "apoB RNA in primary human hepatocytes", "experiment": "apoB RNA expression analysis (qRT-PCR) after 72 hr treatment", "type": "cell-based", "settings": "read-out: IC50 apoB RNA levels", "description": "RNA from cells was isolated using TRI Reagent® Solution (Thermo Scientific) according to the manufacturer's instruction. Conversion into cDNA was performed using iScript™ cDNA Synthesis Kit (BioRad) using standard protocols. ApoB expression levels and levels of specific hepatocyte housekeeping genes were determined using quantitative real-time PCR assays (qRT-PCR) using iTaq™ Universal SYBR® Green Supermix (BioRad) and the Light Cycler 480 (Roche Diagnostics, Rotkreuz, Switzerland) with specific DNA primers, listed in Table A4. Analysis was done by the ΔCt method to determine ApoB expression relative to 2 hepatocyte-specific housekeeping control mRNAs. Each analysis reaction was performed in triplicate.\nCovalent binding of the saponin to the GalNAc/oligonucleotide conjugate via a semicarbazone bond thus results in increased efficacy when relative apoB RNA levels are considered and compared with levels measured in cells which were contacted with a conjugate comprising saponin linked via a hydrazone bond to the GalNAc/oligonucleotide conjugate. Without wishing to be bound by any theory, improved efficacy of the release of free saponin from the conjugate, when the conjugate is transferred into the endosome, is at the basis for the improved potency of the oligonucleotide, as obtained with the conjugate comprising saponin bound via semicarbazone. […]"}, "[4]": {"test_system": "human red blood cells (RBC)", "experiment": "Haemolysis assay", "type": "cell-based", "settings": "fresh human red blood cells", "description": "Red blood cells (RBCs) were isolated from a buffy coat using a Ficoll gradient. The obtained RBC pellet (˜4-5 ml) was washed 2× with 50 ml DPBS (without Ca^2+/Mg^2+, PAN-Biotech GmbH). Cells were pelleted by centrifugation for 10 min, 800×g at RT. RBC were counted and resuspended at 500.000.000 c/ml in DPBS (without Ca^2+/Mg^2+), based on total cell count. SO1861-linker dilutions were prepared in DPBS (with Ca^2+/Mg^2+, PAN-Biotech GmbH), at 1.11× final strength. For positive lysis control a 0.02% Triton-X100 solution was prepared in DPBS^+/+. Of all compound solutions 135 μl was dispensed/well in a 96 well V-bottom plate. To this 15 μl RBC suspension was added and mixed shortly (10 sec—600 rpm). The plate was incubated 30 min at RT, with gentle agitation. Afterwards the plate was spun for 10 min at 800×g to pellet the RBC and 100-120 μl supernatant was transferred to a standard 96 wp. Subsequently, the OD at 405 nm was measured on a Thermo Scientific Multiskan FC plate reader (Thermo Scientific). For quantification the background signal of ‘DPBS^+/+ only’ wells was subtracted from all other wells before the percentage of hemolysis was calculated in comparison to 0.02% Triton-X100, by dividing the background corrected signal of treated wells over the background corrected signal of the 0.02% Triton-X100 wells (×100)."}, "A431 cells [5]": {"test_system": "A431 cells", "experiment": "Cell toxicity (MTS), saponin alone", "type": "cell-based", "description": "(§2) Cell viability was determined by an MTS-assay, performed according to the manufacturer's instruction (CellTiter 96® AQueous One Solution Cell Proliferation Assay, Promega). Briefly, the MTS solution was diluted 20× in DMEM without phenol red (PAN-Biotech GmbH) supplemented with 10% FBS (PAN-Biotech GmbH). The cells were washed once with 200 μL PBS per well, after which 100 μL diluted MTS solution was added per well. The plate was incubated for approximately 20-30 minutes at 37° C. Subsequently, the optical density at 492 nm was measured on a Thermo Scientific Multiskan FC plate reader (Thermo Scientific). For quantification the background signal of ‘medium only’ wells was subtracted from all other wells, before the ratio of untreated/treated cells was calculated, by dividing the background corrected signal of untreated wells over the background corrected signal of the treated wells."}, "HeLa cells [6]": {"test_system": "HeLa cells", "experiment": "Cell toxicity (MTS), saponin alone", "type": "cell-based", "description": "as §2"}, "A431 cells [7]": {"test_system": "A431 cells", "experiment": "Cell killing assay (MTS): saponin titrated on fixed non-effective concentration of targeted toxin (endosomal escape enhancing activity)", "type": "cell-based", "description": "as §2"}, "HeLa cells [8]": {"test_system": "HeLa cells", "experiment": "Cell killing assay (MTS): saponin titrated on fixed non-effective concentration of targeted toxin (endosomal escape enhancing activity)", "type": "cell-based", "settings": "read-out: IC50 nM (Activity; + 5 pM EGFdianthin); HeLa cells; + 5 pM EGFdianthin", "description": "as §2"}}, "note": "Like-named read-outs stand apart in the source and are kept apart here.", "data": [{"compound": "5′-GCattggtatTCA-3′ (GCATTGGTATTCA; listed as DNA, chemistry not fully specified) [ApoB #02 BNA]", "values": [{"measurement": "serum apoB protein", "setting": "apoB protein in serum", "result": 57, "unit": "µg/mL"}, {"measurement": "reduction of liver apoB RNA compared to vehicle", "setting": "apoB RNA in liver tissue; 0.1 mg/kg iv, 24 hrs", "result": "not noticeably reduced"}, {"measurement": "reduction of liver apoB RNA compared to vehicle", "setting": "apoB RNA in liver tissue; 1 mg/kg iv, 24 hrs", "result": "~15", "unit": "%"}, {"measurement": "reduction of liver apoB RNA compared to vehicle", "setting": "apoB RNA in liver tissue; 2 mg/kg iv, 24 hrs", "result": "~21", "unit": "%"}, {"measurement": "reduction of liver apoB RNA compared to vehicle", "setting": "apoB RNA in liver tissue; 2 mg/kg iv, 72 hrs", "result": 39, "unit": "%"}, {"measurement": "reduction of liver apoB RNA compared to vehicle", "setting": "apoB RNA in liver tissue; 2 mg/kg iv, 336 hrs", "result": 30, "unit": "%"}, {"measurement": "liver apoB RNA levels, % of vehicle control", "setting": "apoB RNA in liver tissue; study B, 2 mg/kg, 72 hrs", "result": 53, "unit": "%"}, {"measurement": "tolerability (clinical observations)", "setting": "[1]", "result": "well tolerated"}, {"measurement": "reduction of serum LDL-C compared to vehicle", "setting": "[2]; study A, 2 mg/kg, 72 hrs", "result": "ca. 50%"}, {"measurement": "reduction of serum LDL-C compared to vehicle", "setting": "[2]; study A, 2 mg/kg, 336 hrs", "result": "ca. 40%"}, {"measurement": "serum LDL-C levels compared to vehicle", "setting": "[2]; study A, 0.1, 1, or 2 mg/kg, 24 hrs", "result": "not noticeably reduced"}, {"measurement": "serum LDL-C", "setting": "[2]; study B, 2 mg/kg, 72 hrs post-dose", "result": 2, "unit": "mg/dL"}, {"measurement": "IC50", "setting": "[3]; relative ApoB #02 BNA concentration, no transfection agent (FIG. 19A)", "result": 400, "unit": "nM"}, {"measurement": "IC50", "setting": "[3]; transfection with RNAi-MAX", "result": 8, "unit": "nM"}]}, {"compound": "CC(=O)OC1C(C)OC(OC2C(C)OC(OC(=O)[C@]34CCC(C)(C)CC3C3=CCC5[C@@]6(C)CC[C@H](OC7OC(C(=O)O)C(O)C(OC8OCC(O)C(O)C8O)C7OC7OC(CO)C(O)C(O)C7O)[C@@](C)(/C=N/NC(=O)CCCCCN7C(=O)C=CC7=O)C6CC[C@@]5(C)[C@]3(C)C[C@H]4O)C(OC3OC(C)C(OC4OCC(O)C(OC5OC(CO)C(O)C(O)C5O)C4O)C(O)C3O)C2O)C(O)C1OC1OCC(O)C(O)C1O", "note": "(some centres unmarked) [SO1861-EMCH]", "values": [{"measurement": "IC50", "setting": "[4]", "result": "> 500000", "unit": "nM"}, {"measurement": "IC50", "setting": "A431 cells [5]", "result": "> 30000", "unit": "nM"}, {"measurement": "IC50", "setting": "HeLa cells [6]", "result": "> 100000", "unit": "nM"}, {"measurement": "IC50", "setting": "A431 cells [7]; + 50 pM Trastuzumab-saporin, read-out: IC50 cell killing", "result": 2500, "unit": "nM"}, {"measurement": "IC50", "setting": "A431 cells [7]; read-out: IC50 nM (Activity; + 5 pM EGFdianthin), + 5 pM EGFdianthin", "result": 3000, "unit": "nM"}, {"measurement": "IC50", "setting": "HeLa cells [8]", "result": 4000, "unit": "nM"}]}]}
